Results as given in US20090023744A1, “COMBINATION THERAPY FOR DEPRESSION” (The General Hospital Corporation, priority 2007, published 2009).
Entries after “also recorded” stand apart in the source; their conditions may differ.

Tests used:
[1] = system: major depressive disorder (MDD); experiment: Clinical case report: treatment of recurrent MDD with buspirone and bupropion; assay type: in vivo, human; conditions: same patient remaining on bupropion 150 SR q.d. alone
Source text: A person with a history of recurrent episodes of MDD presented with a recurrence of their MDD in the context of their having been off antidepressant medications. […] At the time of the initiation of this treatment combination, the patient reported depressed mood, irritability, decreased sleep and appetite, and fatigue, as well as reduced interest.

5-HT2C receptor [2] = target: T1, 5-HT2C receptor (Homo sapiens, UniProt P28335); conditions: reference [2]; cited from earlier work
T1 sequence (P28335 33-458): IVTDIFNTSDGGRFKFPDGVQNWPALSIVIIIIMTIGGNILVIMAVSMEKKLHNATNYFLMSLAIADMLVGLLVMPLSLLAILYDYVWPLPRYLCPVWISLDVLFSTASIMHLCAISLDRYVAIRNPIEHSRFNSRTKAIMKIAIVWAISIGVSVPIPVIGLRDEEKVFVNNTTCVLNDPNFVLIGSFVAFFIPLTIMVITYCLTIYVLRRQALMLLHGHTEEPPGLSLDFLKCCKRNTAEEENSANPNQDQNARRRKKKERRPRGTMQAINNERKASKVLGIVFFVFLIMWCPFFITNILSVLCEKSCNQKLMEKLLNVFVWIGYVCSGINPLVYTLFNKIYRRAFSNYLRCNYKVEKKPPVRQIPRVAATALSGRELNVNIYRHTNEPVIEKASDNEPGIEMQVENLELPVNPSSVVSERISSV

5-HT2C receptor [3] = target: T1, 5-HT2C receptor; conditions: reference [2]; cited from earlier work; remark: listed apart in the source

Compound | depressive symptoms after discontinuation of buspirone [1] | insomnia after discontinuation of buspirone [1] | affinity for 5-HT2C receptors (5-HT2C receptor [2]) | 5-HT2C receptor antagonist activity (5-HT2C receptor [3])
CC(NC(C)(C)C)C(=O)c1cccc(Cl)c1 (racemic) [bupropion, (±)-1-(3-chlorophenyl)-2-[(1,1-dimethylethyl)amino]-1-propanone] | depressive symptoms quickly returned; also recorded: not sufficient to lead to antidepressant response | improvement of their insomnia |  | 
O=C1CC2(CCCC2)CC(=O)N1CCCCN1CCN(c2ncccn2)CC1 [buspirone, 8-[4-[4-(2-pyrimidinyl)-1-piperazinyl)butyl)-8-azaspiro[4,5]decane-7,9-dione] |  |  | low affinity | weak
